Results published in patent US20080175891A1, “METHODS, COMPOSITIONS, AND FORMULATIONS FOR PREVENTING OR REDUCING ADVERSE EFFECTS IN A PATIENT” (priority 2007, published 2008).

Columns and labels:
seizures = details: experimental animal model; cited from earlier work
[1] = human, in vivo
Text: Applicant also discovered that lower doses of AICA riboside were needed to achieve the desired blood concentration levels in anesthetized patients than in non-anesthetized patients. It appears that the dose needed in anesthetized patients may be about 20-50% less than the dose needed in non-anesthetized patients. Thus, a preferred dosage of AICA riboside (or prodrug) in a non-anesthetized patient or a patient anesthetized for a short time is larger than the preferred dosage for an anesthetized patient. Accordingly, dosages of from about 0.075 mg/kg/min to about 0.30 mg/kg/min are preferred in such cases, more preferably between about 0.10 mg/kg/min and about 0.15 mg/kg/min, and most preferably about 0.125 mg/kg/min.

[2] = system: pentylene tetrazol-induced seizures; assay: Pentylene tetrazol-induced seizures (Example XIII); details: in vivo
Text: The adenosine released from neuronal cells when they are stimulated and break down ATP during seizure (epileptic) activity normally will feedback and suppress this seizure (epileptic) activity.

mast cells = assay: Mast cell activation / degranulation; type: cell-based
Text: As discussed in B. Benacerra and A. Unanue in Textbook of Immunology (Williams & Williams Baltimore/London, 1979), a key to suppressing allergic responses is to prevent the release of pharmacologically active substances by mast cells. Mast cells are large basophilic staining cells with extensive granules that contain substances, such as histamines, that are liberated by the mast cell during an allergic reaction and are required to support the allergic response. The release of these pharmacologically active substances present in mast cells is termed “degranulation.” Thus, chemicals that prevent degranulation should have a beneficial effect on reducing the severity of the allergic response. […] Mast cell activation also causes the release of prostaglandins and leukotrienses (non-preformed mediators) such as slow reactive substance of anaphylaxis.

[3] = system: bronchospasm induced by antigen sensitization; details: guinea pig; cited from earlier work
[4] = system: patients with adenylosuccinase deficiency (autism); assay: Therapeutic trials in patients with adenylosuccinase deficiency (autism) (Example X); type: in vivo, human; details: oral
Description: Conditions potentially associated with chronic low adenosine may also be treated by compounds of the invention. These pathologic states include autism, insomnia, cerebral palsy, schizophrenia, and other neuropsychiatric symptoms. It is anticipated that doses ranging from 0.1 mg/kg/day up to about 200 mg/kg/day will be beneficial.

arrhythmias = assay: Prophylactic effect of AICA riboside treatment on arrhythmias (Examples VI and XIV); type: in vivo
Text: Another disease caused by or able to cause restricted blood flow is myocardial arrhythmia. Although restricted blood flow can initiate the onset of arrhythmia, the precise cause is unknown. However, it is known that lipid peroxidation by oxygen radicals is arrhythmogenic. Since the latter are produced by granulocytes, the inhibition of granulocyte superoxide production by the method of the invention can be expected to control arrhythmia. In addition, mast cells are in higher concentration in areas of atherosclerosis. Suppression of their activation might reduce the release of other mediators of arrhythmias. Adenosine also has direct anti-arrhythmic effects on myocytes. […] Rapid firing of cells during arrhythmia causes increased net ATP catabolism and adenosine release.

NC(=O)c1ncn([C@@H]2O[C@H](CO)[C@@H](O)[C@H]2O)c1N [AICA riboside, 5-amino-1-β-D-ribofuranosyl-imidazole-4-carboxamide]
inhibition of seizures (seizures): inhibitor of seizures
dose needed in anesthetized patients, less than in non-anesthetized patients [1]: 20-50%
incidence of pentylene tetrazol-induced seizures [2]: decreased incidence
latency to pentylene tetrazol-induced seizures [2]: prolonged latency
mast cell activation (mast cells): suppress mast cell activation
mast cell degranulation (mast cells): prevent mast cell degranulation
anti-allergic actions [3]: anti-allergic actions
clinical or biochemical side effects ([4]; 5 mg/kg/day increased to 2×10 mg/kg/day): No clinical or biochemical side effects were observed
behaviour during therapy as described by the parent ([4]; 5 mg/kg/day increased to 2×10 mg/kg/day, both patients): more pleasantly active and more easy to handle during therapy
clinical improvement ([4]; 5 mg/kg/day increased to 2×5 and finally 2×10 mg/kg/day, two patients): clear-cut improvement in one of two patients
number of premature ventricular depolarizations (arrhythmias): decreased number
number of ventricular tachycardia episodes (arrhythmias): decreased number

CC(=O)OC[C@H]1O[C@@H](c2nc(C(N)=O)c(N)[nH]2)[C@H](OC(C)=O)[C@@H]1OC(C)=O [Compound No. 2, 5-Amino-(2,3,5-tri-O-acetyl-beta-D-ribofuranosyl)imidazole-4-carboxamide]
melting point: 128 to 129 °C

Nc1c(C(=O)NCCCCCCNC(=O)c2ncn([C@@H]3O[C@H](CO)[C@@H](O)[C@H]3O)c2N)ncn1[C@@H]1O[C@H](CO)[C@@H](O)[C@H]1O [Compound No. 68, N,N′-bis-(5-amino-1-β-D-ribofuranosylimidazole-4-carbonyl)-1,6-diaminohexane]
melting point: 181 to 185 °C

NC(=O)c1ncn([C@@H]2O[C@H](CO)[C@@H](O)[C@H]2O)n1 [ribavirin, 1-β-D-ribofuranosyl-1H-1,2,4-triazole-3-carboxamide]
mast cell activation (mast cells): suppress mast cell activation
mast cell degranulation (mast cells): prevent mast cell degranulation
